Test results published in patent publication US12428465B2, “Therapeutic peptides and methods for treating type 2 diabetes” (OP-T LLC, priority 2018, dated 2025).

Assays:
[1] = system: NOD mice; experiment: Development of diabetes in NOD mice treated with CD154 peptides; format: in vivo, mouse; settings: 25 ug (1 mg/kg) tail vein weekly from 6 weeks of age
Procedure: (§1) Peptides were designed based on the amino acid sequence of mouse CD154 protein (SEQ ID NO:1) in the SwissPro database. […] Weekly after the initial injection, another 25 ug of peptide (or 100 ul of saline in the case of the Control mice) was injected into the tail vein. At 10 weeks of age, mice were monitored for diabetes, as indicated by a blood glucose level greater than 250 mg/dL for three consecutive days. During this time, blood was also taken from the tail vein, or by sub-mandibular venal puncture, and the level of CD4+ and CD8+ cells determined by flow cytometry using antibodies for CD4 protein and CD8 protein.

[2] = system: NOD mice; experiment: CD4/CD8 ratio in blood of treated NOD mice by flow cytometry; format: in vivo, mouse; settings: 25 ug (1 mg/kg) tail vein weekly
Procedure: as §1

[3] = system: NOD mice; experiment: Reversal of hyperglycemia in newly diabetic NOD mice; format: in vivo, mouse
Procedure: Six mice from Example 1 that were not treated were allowed to subsequently develop diabetes. These mice were injected intravenously with 100 ug of the 15-mer peptide. These mice were then given weekly injections of the 15-mer peptide into their tail veins, and their blood glucose levels monitored twice-weekly. The 15-mer peptide was administered for a total of ten weeks, after which the treatment was stopped.
(§2) At the onset of diabetes, six NOD mice were injected with […] of the 15-mer peptide, resulting in the reversal of hyperglycemia in 80% of the recipients. Six weeks after reversal of hyperglycemia, mice were sacrificed, and the pancreas removed for analysis. The pancreas was fixed, sectioned and then stained using an aldehyde/fuschsin stain that allows detection of insulin granules. Granulation of the tissue was scored as follows: 4=completely granulated; 3=75% of islet granulated; 2=50% of islet granulated, and peri-insulitis; 1=25% of islet granulated; 0=no insulin granules detected.

[4] = system: CD40+ T-cells; experiment: Binding of FITC-labeled 15-mer peptide to Th40 cells, flow cytometry; set-up: species or system mouse; settings: lymphocytes of 9 week old NOD mice
Procedure: Total lymphocytes were isolated from 9 week old NOD mice. The lymphocytes were incubated with anti-CD4, anti-CD8, anti-CD40 and an FITC-labeled 15-mer peptide, and then analyzed by flow cytometry. Cells were gated for CD4 (both CD4hi and CD4lo populations were included) and CD40 versus the 15-mer peptide.

[5] = system: B cells; experiment: Binding of FITC-labeled 15-mer peptide to B cells, flow cytometry; set-up: species or system mouse; settings: spleen B cells of NOD mice, 90% CD40 positive
Procedure: B cells were isolated from the spleens of NOD mice. Sorted MHC-II+ cells were purified from total lymphocytes. Cells were stained with FITC-labeled 15 mer peptide, anti-CD40, and B cell markers CD19 and CD21. MHC-II+ cells were gated for CD19+ and CD21+ and then 15-mer peptide versus CD40 antibody was measured.

[6] = system: blood cells; experiment: Binding of biotin-conjugated 15-mer peptide to whole blood cells, HRP-avidin absorbance at 405 nm; set-up: species or system human; settings: 1 ml whole blood
Procedure: 1 ml of whole blood was obtained from each individual and incubated with biotin-conjugated, 15-mer peptide. The cells were then exposed to horseradish peroxidase (HRP)-avidin, washed and the absorbance at 405 nm determined using a spectrophotometer.

[7] = system: NOD mice; experiment: Insulin granulation of the pancreas in NOD mice, aldehyde/fuschsin stain; format: in vivo, mouse; settings: six weeks after reversal of hyperglycemia; versus irrelevant peptide
Procedure: as §2

[8] = system: ApoE deficient mice; experiment: Atherosclerosis in ApoE deficient mice, lesser curvature of the aortic arch; format: in vivo, mouse; settings: 1 mg/kg IV three times a week from 9 weeks of age, normal chow
Procedure: ApoE deficient mice on a normal chow diet were selected to receive a dose of 1 mg/kg of the 15-mer peptide (SEQ ID NO: 7) by IV tail injection, three times a week over a period of […], beginning at 9 weeks of age and also utilized a control. At 25 weeks, the animals were euthanized, weighed, and then had blood, spleen, and pancreas removed for analysis. The subjects were then perfused through cardiac puncture with 4% paraformaldehyde. Aortic arches were dissected, dehydrated in sucrose gradient and then flash frozen.
FIG. 17 provides an example of the lesser curvature of the aortic arch, defined proximally from the aortic outflow (AO). Of the segments seen in the trichrome stain, an intimal distance of […] was measured distally. The aortic-arch wall area subtended by this 2.5 mm stretch of the intima was calculated for each section of all mice, with maximal area of the inner-aortic-arch wall of each mouse used to compute averages per group. The luminal surface (L), aortic arch (AO), and innominate artery (I) are labelled in this FIG. 17.
Plaque was subdivided based on morphology of early lesions (observable as fatty streaks containing macrophage derived foam cells with varying degrees of lipid accumulation) compared with more advanced fibroatheromas (containing varying degrees of lipid or necrotic core and fibrous caps). […]

[9] = system: ApoE-/- mice; experiment: Existing atherosclerotic disease in ApoE-/- mice, plaque cap and core measurements; format: in vivo, mouse; settings: 1 mg/kg IV once a week for 4 weeks from 20 weeks of age
Procedure: In this study, six ApoE−/− mice received a normal chow diet from 0 to 20 weeks of age. At 20 weeks of age, three mice were randomly assigned to receive dose of 1 mg/kg of KGYY15 (15-mer-SEQ ID NO:7) by IV tail injection, once a week for a period of 4 weeks. Control mice received vehicle only. After 4 weeks of treatment, animals were euthanized then perfused through cardiac puncture with 4% paraformaldehyde. Aortic arches were dissected in surcrose gradient and flash frozen. Approximately fifty, 8 um longitudinal sections were obtained per mouse. Slides were treated with trichrome stain and analyzed using cellSens software for measurements. Total plaque was measured including 2.5 mm lesser curvature and innominate artery.

[10] = Clot study of whole human blood in the presence of peptide; settings: dosing levels similar to murine studies
Procedure: Whole human blood was administered the peptide in accordance with similar dosing levels to those used for murine studies.

[11] = system: ApoE-/- mice; experiment: LDL cholesterol in ApoE-/- mice; format: in vivo, mouse; settings: 1 mg/kg IV once a week for 4 weeks
Procedure: In this study, six ApoE−/− mice received a normal chow diet from 0 to 20 weeks of age. At 20 weeks of age, three mice were randomly assigned to receive dose of 1 mg/kg of KGYY6 (6-mer-SEQ ID NO:29) by IV tail injection, once a week for a period of 4 weeks. Control mice received vehicle only.

[12] = system: ApoE-/- mice; experiment: Atherosclerotic changes in high fat diet ApoE-/- mice (Sudan IV en-face, Paigen method, trichrome); format: in vivo, mouse
Procedure: ApoE−/− mice were fed a high fat diet for 16 weeks. Mice were randomly assigned to receive dose of 1 mg/kg of KGYY6 (6-mer-SEQ ID NO:29) by IV tail injection, once a week for a period of 4 weeks. Control mice received vehicle only. Atherosclerosis was investigated by several methods. […] FIG. 28A is an image of KGYY6 treated aortic en-face Sudan IV staining and FIG. 28B is an image of control (untreated) aortic en-face Sudan staining.
Further, measurement of plaque area and morphology was performed using the Paigen method. This method obtains sequential 5 μm aortic cross sections from the aortic root beginning at the valve leaflets into the ascending aorta. At 50 μm intervals, slides are stained after which the area of atherosclerotic lesion is measured. Individual plaque area measurements are plotted against the micrometer intervals and a curve is established, with the area under the curve (AUC) giving the total volume of plaque.

[13] = system: ApoE-/- mice; experiment: Glucose tolerance testing and serum insulin in high fat diet ApoE-/- mice; format: in vivo, mouse
Excerpt: One example of a disease that is particularly amenable to treatment using a peptide of the present developments may be type 2 diabetes. In type 2 diabetes, glucose tolerance is reduced, insulin sensitivity is decreased, and plasma insulin levels are increased. Consequently, control of inflammatory cells and cell signaling via CD40-CD154 interaction may be able to be used to control, modulate, reduce and/or reverse type 2 diabetes symptoms that are characterized as by glucose intolerance, insulin resistance, and increased plasma insulin levels. Several murine models of T2D and/or atherosclerosis have been developed. For initial studies, ApoE−/− mice were selected due to their ability to develop type 2 diabetes from a high fat diet. Glucose tolerance and insulin testing were performed on all of the mice. The mice were administered the 6-mer peptide (SEQ ID NO:29) at a rate of 1 mg/kg weekly via I.V, injection and monitored. […] Thus, one embodiment of the present developments is a method to prevent type 2 diabetes in an individual at risk for developing type 2 diabetes, the method comprising administering to the individual a peptide to selectively bind to a CD40 expressing cell. In such an embodiment, the peptide may be selected from SEQ ID NOS: 3-9 and 24-30.
ApoE−/− mice were fed a 60% high fat diet (research diet) for 1 week. A select population of mice were then injected with 6-mer peptide at a dose of 1 mg/kg and others were untreated and tracked as controls. Glucose tolerance testing (GTT) was performed by fasting 6 hours, followed by intraperitoneal injection of 1 g/kg body weight glucose in water. Both blood glucose and blood serum insulin were measured at 0, 15 minutes, 30 minutes, 60 minutes, and 2 hours.

[14] = system: GLUT4; experiment: Western analysis of GLUT4 in adipose and muscle tissue of treated mice; format: in vivo, mouse; settings: treated versus untreated mice
Excerpt: GLUT4 is responsible for glucose uptake in response to insulin and known to have reduced expression in type 2 diabetes.

[15] = system: Th40 cells; experiment: Cytokine production of splenic lymphocytes (Th40 cells) treated in vitro, flow cytometry; format: cell-based, mouse; settings: splenic lymphocytes of ApoE-/- and C57BL/6 mice, 24 hours in vitro, varying concentrations
Procedure: Spleens from ApoE mice and C57BL/6 mice were processed for lymphocytes. ApoE−/− and C57BL/6 mice were fed a 60% high fat diet (research diet) for 1 week. Splenic lymphocytes were treated with 6-mer in vitro for 24 hours. Cells were placed in media overnight in the presence of varying concentrations of 6-mer peptides. The following morning. Brefeldin A was administered for 4 hours. All cells were stained for CD3, CD4, CD40 (Th40 cells) and measured by use of flow cytometry for their production of IL2, INFγ, and IL17a.

[16] = system: human B cells; settings: cited from earlier work
[17] = high fat diet 16 weeks, 1 mg/kg IV once a week for 4 weeks
[18] = trichrome staining, Image Pro Plus analysis

Compound: VLQWAKKGYYTMKSN (VLQWAKKGYYTMKSK) [15-mer peptide, 15-mer peptide derived from the mouse CD154 protein]
- development of diabetes (blood glucose greater than 250 mg/dL for three consecutive days) [1]: prevented the onset of diabetes
- compromise of the immune system as determined by the CD4/CD8 ratio [2]: did not result in compromise of the immune system
- reversal of hyperglycemia in already diabetic mice ([3]; 100 ug IV then weekly injections for ten weeks): can reverse hyperglycemia
- recipients with reversal of hyperglycemia ([3]; six NOD mice injected with 100 ug/ml at the onset of diabetes): 80%
- return of hyperglycemia after cessation of the treatment ([3]; treatment stopped after ten weeks): ≤ 5 weeks
- CD40+ T-cells that bind the peptide [4]: 90%
- B cells that bound the peptide [5]: 8%
- peptide binding activity of blood cells, type-I diabetes patients versus non-diabetic controls [6]: higher
- insulin granules in the pancreas [7]: preserved insulin granules in the majority of the mice
- total area of the 2.5 mm segment of the aortic-arch wall [8]: substantially reduced
- total number of plaque (early lesions and advanced plaque) [8]: significantly decreased
- average cap width (cap size) [9]: greater
- average core width (core size/plaque size) [9]: decreased
- cap to core ratio of advanced plaques [9]: reduced
- number of individual early plaques and advanced plaques [9]: reduced
- clotting of whole human blood [10]: does not modify or change the clotting

Compound: VLQWAKKGYYTMK [13-mer peptides, 13-mer peptide derived from the CD154 protein]
- development of diabetes (blood glucose greater than 250 mg/dL for three consecutive days) [1]: significant effects on the development of diabetes

Compound: AKKGYY [KGYY6, 6-mer peptide from CD154]
- reduction in LDL cholesterol values versus untreated mice [11]: > 50%
- lesion areas, en-face Sudan IV stain [12, 17]: significant reduction
- plaque volume (area under the curve, Paigen method) [12, 17]: reduction
- plaque composition: collagen [12, 18]: increased
- plaque composition: smooth muscle content [12, 18]: reduced
- insulin sensitivity compared to controls ([13]; 1 mg/kg): significantly improved
- plasma insulin levels compared to controls ([13]; 1 mg/kg): lowered
- insulin resistance compared to controls ([13]; 1 mg/kg weekly I.V.): improve
- glucose tolerance compared to controls ([13]; 1 mg/kg, GTT 1 g/kg glucose i.p. after 6 hours fasting): significantly increased
- expression of GLUT4 in muscle tissue [14]: increased expression
- expression of GLUT4 in white adipose tissue [14]: increase in expression
- inflammatory cytokine production of IL2, INFγ, and IL17a [15]: affects

Compound: Cc1ccc(C(=O)Nc2ccc(S(=O)(=O)O)c3cc(S(=O)(=O)O)cc(S(=O)(=O)O)c23)cc1NC(=O)c1cccc(NC(=O)Nc2cccc(C(=O)Nc3cc(C(=O)Nc4ccc(S(=O)(=O)O)c5cc(S(=O)(=O)O)cc(S(=O)(=O)O)c45)ccc3C)c2)c1 [suramin]
- CD154-induced proliferation of human B cells [16]: prevented
